Literature values in patent US20050090660A1, “2'-deoxy-L-nucleosides” (priority 1999, published 2005).

What was measured:
HBV = HBV patients, two and four week courses
polymerase γ = molecular target: T1, polymerase γ (Homo sapiens, UniProt P54098); conditions: polymerase responsible for mitochondrial DNA chain elongation
T1 sequence (P54098 1-1239): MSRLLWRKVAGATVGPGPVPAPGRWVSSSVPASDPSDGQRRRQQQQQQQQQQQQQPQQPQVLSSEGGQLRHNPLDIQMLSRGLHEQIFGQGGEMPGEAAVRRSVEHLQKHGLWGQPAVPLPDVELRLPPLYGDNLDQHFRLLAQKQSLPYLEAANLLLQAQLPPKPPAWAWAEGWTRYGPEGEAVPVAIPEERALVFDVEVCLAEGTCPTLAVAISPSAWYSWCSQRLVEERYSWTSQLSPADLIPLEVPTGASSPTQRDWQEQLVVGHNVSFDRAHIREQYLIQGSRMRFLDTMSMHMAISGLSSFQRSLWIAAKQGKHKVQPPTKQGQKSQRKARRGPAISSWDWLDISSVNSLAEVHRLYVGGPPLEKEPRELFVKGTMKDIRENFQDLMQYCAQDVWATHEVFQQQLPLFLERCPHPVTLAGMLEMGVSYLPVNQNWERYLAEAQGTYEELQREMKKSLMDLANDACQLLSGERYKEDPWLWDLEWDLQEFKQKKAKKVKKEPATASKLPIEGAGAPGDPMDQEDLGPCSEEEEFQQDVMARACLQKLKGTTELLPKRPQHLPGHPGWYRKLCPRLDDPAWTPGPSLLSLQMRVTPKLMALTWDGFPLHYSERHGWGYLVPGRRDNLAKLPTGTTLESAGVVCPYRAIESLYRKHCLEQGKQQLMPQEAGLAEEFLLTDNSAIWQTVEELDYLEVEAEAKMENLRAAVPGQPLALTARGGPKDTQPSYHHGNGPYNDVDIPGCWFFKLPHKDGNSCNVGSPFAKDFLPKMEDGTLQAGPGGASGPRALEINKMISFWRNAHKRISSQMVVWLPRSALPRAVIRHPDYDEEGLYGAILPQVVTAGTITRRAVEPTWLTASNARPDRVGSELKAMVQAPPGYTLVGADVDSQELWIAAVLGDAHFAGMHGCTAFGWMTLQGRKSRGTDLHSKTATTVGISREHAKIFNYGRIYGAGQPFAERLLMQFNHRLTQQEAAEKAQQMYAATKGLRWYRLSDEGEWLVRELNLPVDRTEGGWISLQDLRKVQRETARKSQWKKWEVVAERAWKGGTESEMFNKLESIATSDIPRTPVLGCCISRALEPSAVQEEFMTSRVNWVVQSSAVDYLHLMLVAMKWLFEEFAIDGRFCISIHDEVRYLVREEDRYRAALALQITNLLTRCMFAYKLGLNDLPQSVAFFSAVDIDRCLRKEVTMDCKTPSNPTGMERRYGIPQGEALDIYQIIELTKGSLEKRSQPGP

[1] = test system: mitochondrial DNA synthesis and lactic acid production
HIV = conditions: specificity versus HBV

lactic acid production (hepatoma cell lines) | SMILES | suppression of serum HBV DNA levels (HBV) [%] | patients who died from hepatic failure (of the 7 patients with delayed hepatotoxicity, trial with 15 patients) | patients with delayed hepatotoxicity (prolonged treatment trial with 15 patients) [patients] | substrate activity for polymerase γ (polymerase γ) | effect on lactic acid production [1] | effect on mitochondrial DNA synthesis [1] | morphological changes in HepG2 cells (uninfected HepG2 cells; treated at up to 100 μM) | activity against HIV (HIV) | IC50 (uninfected HepG2 cells) [µM]
– | O=c1[nH]c(=O)n([C@@H]2O[C@H](CO)[C@@H](O)[C@@H]2F)cc1I [FIAU] | ≤ 95 | 5 | 7 | – | – | – | – | – | –
no significant | Cc1cn([C@H]2O[C@@H](CO)[C@H](O)[C@H]2F)c(=O)[nH]c1=O [L-FMAU] | – | – | – | – | – | – | – | – | –
– | Nc1ncnc2c1ncn2[C@@H]1C[C@@H](O)[C@H](CO)O1 [L-dAdo, 2′-deoxy-β-L-adenosine] | – | – | – | little, if any | no effect | no effect | no morphological changes | not HIV | –
– | Nc1ccn([C@@H]2C[C@@H](O)[C@H](CO)O2)c(=O)n1 [L-dCyd, 2′-deoxy-β-L-cytidine] | – | – | – | little, if any | no effect | no effect | – | not HIV | > 200
– | Cc1cn([C@@H]2C[C@@H](O)[C@H](CO)O2)c(=O)[nH]c1=O [L-dThd, 2′-Deoxy-β-L-thymidine] | – | – | – | little, if any | no effect | no effect | – | not HIV | > 200
